# According to patent US20110091574A1, “TREATMENT OF ADENOCARCINOMA EXPRESSING LKB1 WITH MTOR INHIBITOR IN COMBINATION WITH COX2 INHIBITOR” (Catholic Healthcare West, priority 2008, published 2011):
# Legend:
# [1] = tested on: AMPK phosphorylation in H2009, H441, H23, H2122 NSCLC cell lines; assay: Immunoblot of AMPK Thr172 phosphorylation after 2-DG; assay type: cell-based, human; settings: 20 mM 2-DG, 1 hour; LKB1 positive H2009, H441 vs LKB1 negative H23, H2122
# Protocol: (§1) FIG. 3 (in three panels, A, B and C) illustrates the effect of 2-deoxyglucose (2-DG) in LKB1 null and LKB1 expressing NSCLC cells. FIG. 3A is an immunoblot of LKB1 in H23, H2122, H2009 and H441 NSCLC cell lines. GAPDH was used as a loading control. FIG. 3B illustrates an immunoblot showing the induction of AMPK phosphorylation by 2-DG. LKB1 positive (H2009, H441) and LKB1 negative (H23, H2122) cell lines were treated with 20 mM of 2-DG for 1 hour. Protein lysates were immunoblotted with an antibody specific to phosphorylated Thr172 AMPK. It is noted that 2-DG induces phosphorylation at Thr172 only in LKB1 expressing cells. Both AMPK and GAPDH were used as loading controls. The blot is representative of two independent experiments. C-LKB1 null NSCLC cell are more sensitive to 2-DG. […] NSCLC cell lines were treated for 48 hours with indicated concentrations of 2-DG. Bars represent standard error.
# To investigate the role of LKB1 in the effectiveness of 2-DG treatment, four NSCLC cell lines (H23, H2122, H441, H2009) were screened by immunoblot for LKB1 expression (FIG. 3A).
# (§2) Cells were incubated on ice for 30 minutes with a lysis buffer containing 10 mM Tris-HCL, 150 mM NaCl and 1% IGEPAL (Sigma). […] Protein concentration was determined using the Bio-Rad DC protein kit. […]
# [2] = tested on: LKB1 null NSCLC cells (H23, H2122); assay: Cell viability after 2-DG (CellTiter Blue); assay type: cell-based, human; settings: 48 hours
# Protocol: as §1
# (§3) Because LKB1-AMPK signaling can affect cell growth or cell number, the number of viable LKB1 null and LKB1 positive cells were compared after treatment with 2-DG for a range of concentrations, over time.
# (§4) LKB1 negative (H23, H2122) and positive (H2009, H441) NSCLC cell lines were treated with decreasing doses of 2-deoxyglucose (2-DG) for 72 hours. Cell viability, markers of apoptosis (e.g. PARP, Caspases), and gene expression profiles were evaluated from treated versus untreated samples.
# (§5) Cell lines were plated at a density of 2500 cells per well in 96 well plates. After attachment, 2-DG was diluted in media at indicated concentrations and added to wells. Treatment was carried out for 48 hours in standard cell culture conditions, before cell viability was assessed using the CellTiter® Blue kit (Promega) according to manufacturer's instructions and read on a Beckman Coulter DTX 880. The percentage of viable cells was determined by normalizing treated samples to vehicle (PBS).
# [3] = tested on: LKB1 positive NSCLC cells (H2009, H441); assay: Cell viability after 2-DG (CellTiter Blue); assay type: cell-based, human; settings: 20 mM 2-DG, 48 hours
# Protocol: as §1, §3, §4, §5
# [4] = tested on: H23 cells; assay: Caspase 3/7 activity (Caspase-Glo 3/7); assay type: cell-based, human; settings: H23 (LKB1 null); increasing doses of 2-DG, 24 hours
# Protocol: (§6) FIG. 4 (in panels A through F) illustrates in graphs and immunoblots that 2-DG induces apoptosis in LKB1 null NSCLC cells. […] Bars represent standard error and the studies were repeated twice. FIG. 4B is an immunoblot of cleaved PARP. H23 and H2009 cells were treated for 24 hours with 20 mM of 2-DG. […] GAPDH was used as a loading control. FIG. 4C is an immunoblot of LKB1 and KDLKB1 in H23 cells after retroviral infection and puromycin selection. GAPDH was used as a loading control. FIG. 4D is an immunoblot that illustrates 2-DG activation of LKB1 in H23-LKB1, but not H23-KDLKB1 cells. The blot was stripped and probed for AMPK as a loading control. The blot represents two independent studies. FIG. 4E is a graph that illustrates that LKB1, but not KDLKB1 prevents activation of caspase 3 and 7 in H23 cells. H23-LKB1 and H23-KDLKB1 cells were treated for 24 hours with 20 mM 2-DG before analysis as described hereinafter. Bars represent standard error, and the study was repeated twice. FIG. 4F is an immunoblot of cleaved PARP in H23-LKB1 and H23-KDLKB1 after treatment with 20 mM of 2-DG for 24 hours. […]
# (§7) Cell lines were plated at a density of 5000 cells per well in 96 well plates. […] Activity of caspases 3 and 7 were determined using a Caspase-Glo® 3/7 kit (Promega) according to manufacturer's instructions and scanned using a Beckman Coulter DTX 880 plate reader. […]
# [5] = tested on: H23 cells; assay: Immunoblot of cleaved PARP; assay type: cell-based, human; settings: 20 mM 2-DG, 24 hours
# Protocol: as §6, with “hours. Blot is representative of two independent studies. GAPDH was used as a loading control.” for “hours.”
# as §2
# [6] = tested on: H23-KDLKB1 cells; assay: Immunoblot of AMPK phosphorylation after 2-DG; assay type: cell-based, human; settings: H23-KDLKB1 cells treated with 2-DG
# Protocol: as §6, with “hours. Blot is representative of two independent studies. GAPDH was used as a loading control.” for “hours.”
# as §2
# [7] = tested on: H23-LKB1 cells; assay: Immunoblot of AMPK phosphorylation after 2-DG; assay type: cell-based, human; settings: H23-LKB1 cells treated with 2-DG
# Protocol: as §6, with “hours. Blot is representative of two independent studies. GAPDH was used as a loading control.” for “hours.”
# as §2
# [8] = tested on: H23-LKB1 cells; assay: Caspase 3/7 activity (Caspase-Glo 3/7); assay type: cell-based, human; settings: H23 re-expressing LKB1; 20 mM 2-DG, 24 hours
# Protocol: as §6, §7
# [9] = tested on: H23-LKB1 cells; assay: Immunoblot of cleaved PARP; assay type: cell-based, human; settings: H23 re-expressing LKB1; 20 mM 2-DG, 24 hours
# Protocol: as §6, with “hours. Blot is representative of two independent studies. GAPDH was used as a loading control.” for “hours.”
# as §2
# [10] = tested on: LKB1 negative cell lines (H23); assay: Microarray gene expression profiling of 2-DG-treated cells; assay type: cell-based, human
# Protocol: (§8) To test this hypothesis, apoptosis-related transcripts of H23 (LKB1 null) and H2009 (LKB1 positive) cells were compared by treatment with either low (2.5 mM) or high dose (20 mM) 2-DG or vehicle (PBS) for 6 hours followed by microarray-based assessment of gene expression. […] LKB1 negative (H23, H2122) and positive (H2009, H441) NSCLC cell lines were treated with decreasing doses of 2-deoxyglucose (2-DG) for 72 hours. Cell viability, markers of apoptosis (e.g. PARP, Caspases), and gene expression profiles were evaluated from treated versus untreated samples. Total RNA was extracted from cells using TRIzol (Invitrogen) followed by RNeasy Mini Kit purification (Qiagen) according to manufacturers specifications. Spectrophotometric analysis was performed on a NanoDrop ND-1000 (Thermo Scientific) and RNA quality was assessed on a BioAnalyzer 2100 (Agilent) using strict RNA integrity QC cutoffs. 500 ng of RNA was labeled and hybridized (in duplicate) to Agilent 4×44K Whole Human Genome One-Color Oligo Microarrays according to manufacturer specifications. Slides were scanned using the Agilent Microarray Scanner (model […]) and processed with Agilent's Feature Extraction software (v. 9.5.1). Comparative and statistical analyses for gene expression profiles, were carried out using GeneSpring 7.3. Apoptosis-related genes of interest were identified by key word search (“apoptosis”) followed by unsupervised hierarchical clustering. Significance values were determined by comparing expression of all LKB1+ samples (grouped) to all LKB1- samples (grouped) for each gene using the Student's t-test and a p<0.05 cutoff after multiple testing correction using the false discovery rate (FDR) method.
# [11] = tested on: LKB1 positive lines (H2009); assay: as above; assay type: cell-based, human
# Protocol: as §8
# [12] = tested on: mTOR in LKB1 null cells; assay: mTOR activation in cells treated with 2-DG; assay type: cell-based; settings: LKB1 null cells treated with 2-DG
# [13] = tested on: COX-2 and COX-1 enzymes; settings: cited from earlier work; for inhibition of COX-2 relative to COX-1: in vitro
# [14] = human, single oral dose of 200 mg; cited from earlier work
# [15] = cited from earlier work
smiles,measurement,setting,value
"O=CC[C@@H](O)[C@H](O)[C@H](O)CO [2-DG, 2-deoxyglucose]",activation of AMPK (phosphorylation at Thr172),[1],induced LKB1 dependent activation of AMPK
same,cell viability,"[2]; LKB1 negative cells, 20 mM 2-DG",significant decrease in cell viability
same,cell viability compared to LKB1 positive cells,"[2]; LKB1 null cells, all doses, lowest 2.5 mM, p=5.73×10^−13",significant decrease in cell viability for all doses tested
same,cell viability,[3],significant decrease in cell viability
same,activation of caspases 3 and 7,[4],dose dependent activation of caspases 3 and 7
same,cleaved PARP (marker of apoptosis),[5],present
same,phosphorylation of AMPK,[6],does not
same,phosphorylation of AMPK,[7],capable of phosphorylating AMPK
same,2-DG induced activation of caspase 3 and 7,[8],prevented 2-DG induced activation of caspase 3 and 7
same,cleavage of PARP,[9],prevented cleavage of PARP
same,expression of BCL-2 and BCL-2 interacting proteins,"[10]; H23 (LKB1 null), 2.5 mM or 20 mM 2-DG, 6 hours, microarray",dose dependent changes
same,expression of pro-apoptotic markers,"[10]; LKB1 negative cell lines, 2-DG-treated",increase in the expression of pro-apoptotic markers
same,expression of pro-apoptotic markers,[11],no changes in expression
same,mTOR activation,[12],increased mTOR activation
CC(=O)Oc1ccccc1C(=O)O [aspirin],inhibition of COX-2 relative to COX-1,[13],about equipotent
Cc1ccc(-c2cc(C(F)(F)F)nn2-c2ccc(S(N)(=O)=O)cc2)cc1 [celecoxib],Cmax,[14],709 ng/mL
same,cardiovascular side effects,"[15]; long-term use at 400 mg once daily, or 200 mg or 400 mg twice daily",severe cardiovascular side effects
Cc1ccc(-c2ncc(Cl)cc2-c2ccc(S(C)(=O)=O)cc2)cn1 [etoricoxib],relative degree of selectivity for COX-2 over COX-1 (rank order),[13],lumiracoxib=etoricoxib>valdecoxib=rofecoxib>>celecoxib
CC(C)Cc1ccc(C(C)C(=O)O)cc1 (stereo not shown) [ibuprofen],inhibition of COX-2 relative to COX-1,[13],sevenfold
Cc1ccc(Nc2c(F)cccc2Cl)c(CC(=O)O)c1 [lumiracoxib],relative degree of selectivity for COX-2 over COX-1 (rank order),[13],lumiracoxib=etoricoxib>valdecoxib=rofecoxib>>celecoxib
CS(=O)(=O)c1ccc(C2=C(c3ccccc3)C(=O)OC2)cc1 [rofecoxib],potency at inhibiting COX-2 relative to COX-1,[13],about 300 times
same,increased risk of cardiovascular toxicities,[15]; trial to prevent adenomas,two-fold
